The values below come from patent US20130189248A1, “EGFR INHIBITOR AND ANTIVIRAL AGENT FOR SIMULTANEOUS, SEPARATE OR SEQUENTIAL USE IN THE TREATMENT AND/OR PREVENTION AND/OR PALLIATION OF CANCER” (priority 2010, published 2013).

Where two headings read alike, the source gives them in different places.

Data set [1] relates to C33A cells (human HPV-negative cervical carcinoma cells). Format: cell-based. The method, then: (§1) The cell lines are available from the American Type Culture Collection (ATCC): • HeLa cells (human HPV-positive cervical carcinoma cells): ATCC n° CCL-2; • Me180 cells (human HPV-positive cervical carcinoma cells): ATCC n° HTB-33; • C33A cells (human HPV-negative cervical carcinoma cells): ATCC n° HTB-31. • H460 cells (human HPV-negative lung carcinoma cells): ATCC n° HTB-177.
(§2) The cell lines were grown in humid incubators at 37° C. under 5% CO2.
(§3) Each of said treatments last the 10-15 days of the clonogenic assay.
(§4) The culture medium has not been replaced during the assay.
(§5) The cultures were stopped by fixing and staining with crystal violet (methanol 80%, formaldehyde 10%, crystal violet 1.25 g), when the clones reached 50 cells. The clones were then counted and related to the number of cells cultured to obtain the fraction of surviving cells.
(§6) The Bliss additivity model was used to classify the effect of the drug combination as synergistic, additive or antagonist.
(§7) A theoretical curve of the expected effect of the combination was calculated from the equation:
(§8) Bliss effect=effect A+effect B−effect A×effect B,
(§9) where effect A and effect B are the effects of drugs A and B alone at specific concentrations.
(§10) Here, the Bliss effect is the expected effect when the combination of the two drugs is exactly additive. If the observed effect (the experimentally measured effect of the combination) is lower than the Bliss effect, the effect of the combination is said to be antagonist (delta=observed effect−Bliss effect is a negative value). If the observed effect is greater than the Bliss effect, the effect of the combination is synergistic (delta is positive).
(§11) The data are expressed as a percentage decrease in cell viability beyond that which would be expected if the association were strictly additive.

In data set [2] the test system is Me180 cells (human HPV-positive cervical carcinoma cells). The data set can be described thus: Clonogenicity test on Me180 cells (with Bliss additivity model). In kind it is cell-based. The method, then: as §1
Me180 cells were grown in the GIBCO® McCoy's 5A medium (available from Invitrogen under catalog reference number 26600023), supplemented with 10% FCS, 1% penicillin/streptomycin and 1% glutamine.
as §2, §3, §4, §5, §6, §7, §8, §9, §10, §11

Data set [3] concerns HeLa cells (human HPV-positive cervical carcinoma cells). The data set is described as follows: Clonogenicity test on HeLa cells (with Bliss additivity model). Format: cell-based. The method, then:
as §1
The HeLa cells contained 10-50 copies of integrated HPV18.
as §2, §3, §4, §5, §6, §7, §8, §9, §10, §11

Data set [4] relates to viral DNA polymerase. The note with it: cited from earlier work.
For data set [5] the following is noted: human, in vivo; cited from earlier work.
For data set [6] the following is noted: cidofovir 3 mg/kg, AIDS patients with CMV retinitis, after 1 hour of infusion; cited from earlier work.
For data set [7], the system named is Me180 xenograft. The data set is described as follows: Me180 xenograft in mice. In kind it is in vivo. Particulars: cidofovir, cetuximab alone or combined.
Data set [8] has as its system HeLa xenograft. The data set is described as follows: HeLa xenograft in female nude mice. Format: in vivo. Particulars: cidofovir i.p. days 1-5, cetuximab i.p. 1 mg/mouse days 1, 4, 7, alone or combined. The method, then:
Unless otherwise indicated, materials and methods are those described in example 1 above. The in vivo experiments were carried out at the Institut Gustave Roussy (94805 Villejuif; France), with the approval of the French Ministry of Agriculture.
10- to 12-week old female nude mice were injected subcutaneously (into the flank) with 2×10^6 live HeLa cells suspended in 100 μL of culture medium without Fetal Calf Serum (FCS) to study tumor growth. […] Tumor volume and weight were monitored twice a week. The mice were sacrificed when the tumor reached ten times the initial volume.

Data set [9] concerns H460 cells (human HPV-negative lung carcinoma cells). The data set is described as follows: Clonogenicity test on H460 cells. Format: cell-based. The note with it: H460 (printed H480); cidofovir alone (10 μg/mL, FIG. 4A). The method, then:
as §1, §2, §3, §4, §5

Data set [10] has as its system herpesvirus polymerases. Particulars: cited from earlier work.
[11] abbreviates: erlotinib alone 0.1 μM/mL, listed as Erlotinib.
Where [12] appears, read: foscarnet sodium alone 200 μM/mL, listed as Foscarnet.
The mark [13] stands for this setting: foscarnet sodium alone 200 μM/mL, listed as Foscarnet sodium.

Consider `C#Cc1cccc(Nc2ncnc3cc(OCCOC)c(OCCOC)cc23)c1` [erlotinib, N-(3-ethynylphenyl)-6,7-bis(2-methoxyethoxy)-4-quinazolinamine], for which the “reduction in clonogenicity compared to the control / Decrease in living cells (%)” value in data set [1] (erlotinib alone 0.1 μM/mL) is listed as “minus 10%”; in data set [1] (setting [11]), 10%; in data set [2] (erlotinib alone 0.1 μM/mL) it was “minus 50%”; in data set [2] (setting [11]) it was 50%; in [2] (erlotinib alone 0.5 μM/mL), “minus 80%”; in data set [2] (erlotinib alone 0.5 μM/mL, listed as Erlotinib), 80%. Besides, the “reduction in clonogenicity compared to the control / Decrease in living cells (%)” value in data set [3] (erlotinib alone 0.1 μM/mL) is given as “minus 50%”; in data set [3] (setting [11]), 50%.

For `Nc1nc2c(ncn2COCCOP(=O)(O)OP(=O)(O)OP(=O)(O)O)c(=O)[nH]1` [Acyclo-GTP, acyclo-guanosine triphosphate], the “times greater affinity for viral than cellular polymerase” value in data set [4] is “approximately 100 times”.

With `O=C(O)P(=O)(O)O` [foscarnet, phosphonoformic acid], the “reduction in clonogenicity compared to the control / Decrease in living cells (%)” value is “minus 20%” in data set [1] (setting [12]); 20% in data set [1] (setting [13]); “minus 35%” in data set [2] (setting [12]); 35% in [2] (setting [13]); “minus 20%” in data set [3] (setting [12]); 20% in [3] (setting [13]).

“Vectibix®: recombinant, fully human IgG2 kappa monoclonal antibody that binds specifically to the human EGFR”: in data set [5], the “incidence of NCI-CTC grade 3-5 adverse reactions” value is listed as 87%; the “patients with dermatologic toxicities” value was 89%; the “patients with severe dermatologic toxicities (NCI-CTC grade 3 and higher)” value is on record as 12%.

With `Nc1ccn(C[C@@H](CO)OCP(=O)(O)O)c(=O)n1` [cidofovir, 1-[(S)-3-hydroxy-2-(phophonomethoxy)propyl]cytosine dehydrate], the plasmatic concentration in [6] is 7.6 ± 1.4 µg/mL. In addition, the “reduction in cell survival compared to the control” value in data set [1] (cidofovir alone 1 μg/mL) is “about 20%”. The “reduction in cell survival / clonogenicity compared to the control / Decrease in living cells (%)” value in [1] (cidofovir alone 5 μg/mL) is given as “minus 20%”. Further, the “tumor growth compared to the control group” value in data set [7] is “does not reduce tumor growth”. In [8], the “tumor growth (tumor volume) compared to the control group” value is recorded as “does not reduce tumor growth”. For the same compound, in data set [2] (cidofovir alone), the “concentration at which the drug alone had an effect on the cells” value is “at least 1 μg/mL”. The “reduction in cell survival (clonogenicity) compared to the control” value in [2] (cidofovir alone 1 μg/mL) was “about 30%”. Besides, the “reduction in clonogenicity compared to the control / Decrease in living cells (%)” value in [2] (cidofovir alone 5 μg/mL) is recorded as 40%; in data set [3] (cidofovir alone 5 μg/mL), 15%. Besides, the “effect on cell survival” value in data set [9] was “no significant effect”. The “concentration at which the drug alone had an effect on clonogenicity” value in data set [3] (cidofovir alone) is recorded as “at least 5 μg/mL”. Moreover, the “reduction in clonogenicity compared to the control” value in data set [3] (cidofovir alone 10 μg/mL) came to 25%. Besides, the clonogenic survival result in data set [3] (cidofovir alone at 1 μg/mL) is “about 100%”.

Turning to Cidofovir diphosphate, the “fold lower concentration needed to inhibit herpesvirus polymerases than human cellular DNA polymerases” value in data set [10] is given as 8- to 600 fold.
